Format in all cases: cell-based
The test system of experiment [1] is Collectotrichum graminicola (Cg). Nature of the experiment: In vitro pathogen growth inhibition assay, Cg. Particulars: 48 h, ≥90% inhibition; 48 hours vs 2% DMSO control; read-out: Compound Concentration (ppm) sufficient for ≥90% inhibition of growth, Cg. In short, it runs like this: (§1)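 Spores in 17% V8 liquid medium, or 1.5 mm Rs mycelial plugs in ¼ PDB, incubated with compound; final concentration checked by OD600 for precipitation. OD readings at 24 and 48 h, blank-subtracted, plus visual ratings; value is concentration giving ≥90% growth inhibition.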

Experiment [2] deals with Fusarium virguliforme (Fv). Nature of the experiment: In vitro pathogen growth inhibition assay, Fv. Particulars: ≥90% inhibition, 48 hours vs 2% DMSO control, read-out: Compound Concentration (ppm) sufficient for ≥90% inhibition of growth, Fv. In short, it runs like this: (§2)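 Spores of Dm, Fv and Pc were diluted in 17% V8 liquid medium; Rs used 1.5 mm mycelial plugs in ¼ PDB. Compounds from 2.5 mg/ml DMSO stocks were combined with inoculum, growth was read by OD600 at 24 and 48 h with blank subtraction, and the reported value is the concentration giving ≥90% inhibition.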

The subject of the next experiment is Rhizoctonia solani (Rs). Nature of the experiment: In vitro pathogen growth inhibition assay, Rs (mycelial plugs). Particulars: Rhizoctonia solani, 48 h, ≥90% inhibition; mycelial plugs; 48 hours vs 2% DMSO control; read-out: Compound Concentration (ppm) sufficient for ≥90% inhibition of growth, Rs. The essentials:
as §2

A further experiment concerns Botrtyis cinerea (Bc). Nature of the experiment: In vitro pathogen growth inhibition assay, Bc. Particulars: 48 h, ≥90% inhibition; 48 hours vs 2% DMSO control; read-out: Compound Concentration (ppm) sufficient for ≥90% inhibition of growth, Bc. In short, it runs like this:
as §1

Experiment [3] concerns Fusarium moniliforme (Fm). Nature of the experiment: In vitro pathogen growth inhibition assay, Fm. Particulars: Fusarium verticillioides; ≥90% inhibition; 48 hours vs 2% DMSO control; read-out: Compound Concentration (ppm) sufficient for ≥90% inhibition of growth, Fm. In short, it runs like this: as §1
The test system of the next experiment is Septoria tritici (St). Nature of the experiment: In vitro pathogen growth inhibition assay, St. Particulars: Zymoseptoria tritici, 48 h, ≥90% inhibition; 48 hours vs 2% DMSO control; read-out: Compound Concentration (ppm) sufficient for ≥90% inhibition of growth, St. In short, it runs like this:
as §1

Experiment [4] deals with Phytophthora capsici (Pc). Nature of the experiment: In vitro pathogen growth inhibition assay, Pc. Particulars: 48 h, ≥90% inhibition, 48 hours vs 2% DMSO control, read-out: Compound Concentration (ppm) sufficient for ≥90% inhibition of growth, Pc. The essentials: as §2
The next experiment concerns Diplodia maydis (Dm). Nature of the experiment: In vitro pathogen growth inhibition assay, Dm. Particulars: Stenocarpella maydis, 48 h, ≥90% inhibition; 48 hours vs 2% DMSO control; read-out: Compound Concentration (ppm) sufficient for ≥90% inhibition of growth, Dm. In short, it runs like this:
as §2

SMILES strings stand for the structures. Converted amounts (≈) assume the structure as drawn.

Consider `COc1ccc(F)cc1[C@H](Cn1c(=O)n(C(C)(C)C(=O)N2CCCC2)c(=O)c2c(C)c(-n3cccn3)sc21)OCC(C)(C)O` [Compound I-138], for which the IC90 in experiment [1] was 10 µg/mL (≈ 15.9 µM); in experiment [2], 10 µg/mL (≈ 15.9 µM); with Rhizoctonia solani (Rs), ≥ 2 µg/mL; with Botrtyis cinerea (Bc) it was 10 µg/mL (≈ 15.9 µM); in experiment [3] it was 0.4 µg/mL (≈ 0.637 µM); in the experiment on Septoria tritici (St) it was > 50 µg/mL. Moreover, the IC90 in experiment [4] was > 50 µg/mL; with Diplodia maydis (Dm), ≥ 10 µg/mL.
Turning to `COCCO[C@@H](Cn1c(=O)n(C(C)C(=O)N2CCCC2)c(=O)c2c(C)c(-n3nccn3)sc21)c1cc(F)ccc1OC` (stereo partly shown) [Compound I-139], the IC90 in experiment [1] amounted to 10 µg/mL (≈ 16.6 µM); in experiment [2] it was 0.4 µg/mL (≈ 0.666 µM); with Rhizoctonia solani (Rs), 2 µg/mL (≈ 3.33 µM); in the experiment on Botrtyis cinerea (Bc), 2 µg/mL (≈ 3.33 µM); in experiment [3] it was 0.4 µg/mL (≈ 0.666 µM); in the experiment on Septoria tritici (St), 50 µg/mL (≈ 83.2 µM). Also, the IC90 amounted to 50 µg/mL (≈ 83.2 µM) in experiment [4] and 10 µg/mL (≈ 16.6 µM) in the experiment with Diplodia maydis (Dm).
As for `COCCO[C@@H](Cn1c(=O)n([C@H](C)C(=O)N2CCCC2)c(=O)c2c(C)c(-n3nccn3)sc21)c1cc(F)ccc1OC` [Compound I-140], the IC90 is 10 µg/mL (≈ 16.6 µM) in experiment [1]; 0.4 µg/mL (≈ 0.666 µM) in experiment [2]; 2 µg/mL (≈ 3.33 µM) with Rhizoctonia solani (Rs); 2 µg/mL (≈ 3.33 µM) in the experiment on Botrtyis cinerea (Bc); 0.4 µg/mL (≈ 0.666 µM) in experiment [3]; > 50 µg/mL in the experiment with Septoria tritici (St). The results for the IC90 (in experiment [4]; with Diplodia maydis (Dm)) were > 50 µg/mL and 10 µg/mL (≈ 16.6 µM), respectively.
Take `COCCO[C@@H](Cn1c(=O)n(CC(=O)N2CCCC2)c(=O)c2c(C)c(-n3nccn3)sc21)c1cc(F)ccc1OC` [Compound I-141]: the IC90 in experiment [1] was ≥ 2 µg/mL; in experiment [2] it was ≥ 2 µg/mL; with Rhizoctonia solani (Rs), 10 µg/mL (≈ 17 µM); in the experiment with Botrtyis cinerea (Bc) it was 2 µg/mL (≈ 3.41 µM); in experiment [3] it was 0.4 µg/mL (≈ 0.682 µM); with Septoria tritici (St), > 50 µg/mL. Besides, the IC90 in experiment [4] was > 50 µg/mL; in the experiment on Diplodia maydis (Dm), 2 µg/mL (≈ 3.41 µM).
For `COc1ccc(F)cc1[C@H](Cn1c(=O)n(C(C)(C)C(=O)NC(C)C)c(=O)c2c(C)c(-n3nccn3)sc21)OCCC(N)=O` [Compound I-142], the IC90 in experiment [1] was 10 µg/mL (≈ 16.2 µM); in experiment [2] it was 0.4 µg/mL (≈ 0.65 µM); in the experiment on Rhizoctonia solani (Rs), 2 µg/mL (≈ 3.25 µM); in the experiment on Botrtyis cinerea (Bc) it was 2 µg/mL (≈ 3.25 µM); in experiment [3], 0.4 µg/mL (≈ 0.65 µM); with Septoria tritici (St), > 50 µg/mL. For the same molecule, the IC90 in experiment [4] is ≥ 50 µg/mL; with Diplodia maydis (Dm), 50 µg/mL (≈ 81.2 µM).
In the case of `COc1ccc(F)cc1[C@H](Cn1c(=O)n(C(C)(C)C(N)=O)c(=O)c2c(C)c(-n3cccn3)sc21)OC1CCOCC1` [Compound I-146], the IC90 in experiment [1] is 10 µg/mL (≈ 17.1 µM); in experiment [2] it was 50 µg/mL (≈ 85.4 µM); in the experiment on Rhizoctonia solani (Rs) it was 50 µg/mL (≈ 85.4 µM); in the experiment on Botrtyis cinerea (Bc) it was 2 µg/mL (≈ 3.41 µM); in experiment [3], 2 µg/mL (≈ 3.41 µM); with Septoria tritici (St), > 50 µg/mL. In addition, the IC90 in experiment [4] is > 50 µg/mL; with Diplodia maydis (Dm), 50 µg/mL (≈ 85.4 µM).
`COc1ccc(F)cc1[C@H](Cn1c(=O)n(C(C)(C)C(N)=O)c(=O)c2c(C)c(-n3cccn3)sc21)O[C@H]1CC[C@@H](O)CC1` [Compound I-150]: the IC90 in experiment [1] was 50 µg/mL (≈ 83.4 µM); in experiment [2] it was 10 µg/mL (≈ 16.7 µM); with Rhizoctonia solani (Rs), 10 µg/mL (≈ 16.7 µM); with Botrtyis cinerea (Bc), 2 µg/mL (≈ 3.34 µM); in experiment [3], 2 µg/mL (≈ 3.34 µM); in the experiment on Septoria tritici (St) it was > 50 µg/mL. The results for the IC90 (in experiment [4]; in the experiment on Diplodia maydis (Dm)) were > 50 µg/mL and ≥ 10 µg/mL, respectively.
Consider `COc1ccccc1[C@H](Cn1c(=O)n(C(C)(C)C(=O)N2CC(O)C2)c(=O)c2c(C)c(-n3nccn3)sc21)OC1CCOCC1` [Compound I-156], for which the IC90 was 50 µg/mL (≈ 80 µM) in experiment [1]; 10 µg/mL (≈ 16 µM) in experiment [2]; 10 µg/mL (≈ 16 µM) with Rhizoctonia solani (Rs); 10 µg/mL (≈ 16 µM) in the experiment with Botrtyis cinerea (Bc); 2 µg/mL (≈ 3.2 µM) in experiment [3]; > 50 µg/mL in the experiment on Septoria tritici (St). Also, the results for the IC90 (in experiment [4]; with Diplodia maydis (Dm)) were > 50 µg/mL and 50 µg/mL (≈ 80 µM), respectively.
